Data set [1] deals with Priestia megaterium. Nature of the data set: Antimicrobial activity against Bacillus megaterium at 1 mM after 24 hrs by agar diffusion method. The class given is functional, organism-based. A general note: A growth-free zone around the sample is the usual read-out of agar diffusion tests.
The subject of data set [2] is Priestia megaterium. Nature of the data set: Antimicrobial activity against Bacillus megaterium at > 50 uM by broth microdilution method. The class given is functional, organism-based. (Broth dilution looks for growth in wells or tubes with falling amounts of substance.)
Data set [3] relates to Priestia megaterium. In words: Antimicrobial activity against Bacillus megaterium after 18 hrs by broth microdilution method. The format is functional, organism-based.
The nature of data set [4]: Toxicity in sheep erythrocytes assessed as hemolysis at up to 1000 uM after 20 mins. The note with it: erythrocyte. The format is cell-based, Ovis aries.
Data set [5] in a line: Toxicity in sheep erythrocytes assessed as hemolysis at up to 100 uM after 20 mins. The class given is cell-based, Ovis aries. The note with it: erythrocyte.
A short description of data set [6]: Solubility of the compound in 33 % acetonitrile-water. The class given is physicochemical. The note with it: buffer.

Molecules are shown by their SMILES. The source made the active and inactive calls. The rule behind the calls is not given here.

As to `C[C@@H]1NC(=O)[C@@H](CC(C)(C)C)NC(=O)[C@H](C)NC(=O)[C@@H](CC(C)(C)C)NC(=O)[C@@H](CCCCN)NC(=O)[C@@H](CC(C)(C)C)NC(=O)[C@H](C)NC(=O)[C@@H](CC(C)(C)C)NC1=O`, the result with Priestia megaterium [1] and with Priestia megaterium [3] was inactive. The outcome with Priestia megaterium [2] was Active. Also, the Activity result in data set [4] is given as “Non-toxic”.
On to `C[C@H]1NC(=O)[C@H](CC(C)(C)C)NC(=O)[C@@H](C)NC(=O)[C@H](CC(C)(C)C)NC(=O)[C@@H](C)NC(=O)[C@H](CC(C)(C)C)NC(=O)[C@H](CCCCN)NC(=O)[C@H](CC(C)(C)C)NC1=O`, for which the result in the data set on Priestia megaterium [1] and with Priestia megaterium [3] was inactive. The result in the data set with Priestia megaterium [2] was Active. Also, the Activity entry in data set [4] was “Non-toxic”.
For the molecule `C[C@H]1NC(=O)[C@H](CC(C)(C)C)NC(=O)[C@@H](C)NC(=O)[C@H](CC(C)(C)C)NC(=O)[C@@H](CCCCN)NC(=O)[C@H](CC(C)(C)C)NC(=O)[C@@H](C)NC(=O)[C@H](CC(C)(C)C)NC1=O`, the result in the data set on Priestia megaterium [1] and with Priestia megaterium [3] was Active. In addition, the Activity entry in data set [5] is recorded as “Non-toxic”.
For `CC(C)(C)C[C@@H]1NC(=O)[C@@H](CCC(N)=O)NC(=O)[C@H](CC(C)(C)C)NC(=O)[C@@H](CCC(N)=O)NC(=O)[C@H](CC(C)(C)C)NC(=O)[C@@H](CCC(=O)O)NC(=O)[C@H](CC(C)(C)C)NC(=O)[C@@H](CCC(N)=O)NC1=O`, the solubility entry in data set [6] is “soluble”.
`C[C@@H]1NC(=O)[C@@H](CC(C)(C)C)NC(=O)[C@H](C)NC(=O)[C@@H](CC(C)(C)C)NC(=O)[C@H](CCCCN)NC(=O)[C@@H](CC(C)(C)C)NC(=O)[C@H](C)NC(=O)[C@@H](CC(C)(C)C)NC1=O`: the outcome with Priestia megaterium [1] and in the data set with Priestia megaterium [3] was Active. Besides, in data set [5], the Activity result is on record as “Non-toxic”.
Turning to `CC(C)(C)C[C@H]1NC(=O)[C@H](CCC(N)=O)NC(=O)[C@@H](CC(C)(C)C)NC(=O)[C@H](CCC(N)=O)NC(=O)[C@@H](CC(C)(C)C)NC(=O)[C@H](CCC(=O)O)NC(=O)[C@@H](CC(C)(C)C)NC(=O)[C@H](CCC(N)=O)NC1=O`, the solubility entry in data set [6] is recorded as “soluble”.

The record behind these values is ChEMBL document CHEMBL1821650, “Pharmacodynamic synergy strictly dependent on the co-operative aggregation of enantiomers of cyclic peptides in the bacterial cell membrane” (Bioorg Med Chem Lett, 2011).
